Data from patent US11242344B2, “(4-hydroxypyrrolidin-2-yl)-heterocyclic compounds and methods of use thereof” (Genentech, Inc., priority 2017, dated 2022).

Columns and labels:
[1] = molecular target: NanoLuc VHL fusion protein (Homo sapiens (Human), UniProt P40337); assay: VHL HEK-293 BRET Assay (NanoBRET Target Engagement); format: cell-based; conditions: geometric mean where more than one measurement
How it was run: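 HEK293 cells stably expressing NanoLuc-VHL, 2 h with compound titration and 1 uM final tracer, then Nano-Glo substrate plus extracellular NanoLuc inhibitor. BRET ratio 610/460 nm, background-corrected with no-tracer wells, normalised to DMSO and 10 uM unlabeled VHL antagonist controls; IC50 by four-parameter fit.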

[2] = molecular target: VHL Elongin B/C complex (Homo sapiens (Human), UniProt P40337); assay: Fluorescence Polarization (FP) VHL Binding Assay; conditions: VHL binding, FP assay; geometric mean where more than one measurement
How it was run: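 Readout is polarization of a TAMRA-coupled VHL ligand (1.67 nM final) displaced from the VHL(E55-D213)/Elongin B/C complex (2.64 nM final) after 1 h incubation at room temperature in pH 8.0 Tris buffer with 1% DMSO. Data normalized to no-VHL and compound-free controls, with compound fluorescence subtracted, and fitted by four-parameter curve for IC50.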

[3] = molecular target: VHL co-expressed with Elongins B and C (Homo sapiens (Human), UniProt P40337); assay: Surface Plasmon Resonance Assay; format: binding; conditions: SPR measured VHL affinity; geometric mean where more than one measurement
How it was run: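 Binding kinetics by SPR at 20 °C: compound concentration series run from low to high at 80 μL/min over VHL–Elongin B/C complex, immobilized via avidin tag on SA chip. Buffer was HEPES pH 7.2 with 150 mM NaCl, TCEP, Tween 20, PEG3350 and 2% DMSO; association/dissociation times adjusted per compound.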

Chain of VHL Elongin B/C complex (P40337 whole entry, looked up): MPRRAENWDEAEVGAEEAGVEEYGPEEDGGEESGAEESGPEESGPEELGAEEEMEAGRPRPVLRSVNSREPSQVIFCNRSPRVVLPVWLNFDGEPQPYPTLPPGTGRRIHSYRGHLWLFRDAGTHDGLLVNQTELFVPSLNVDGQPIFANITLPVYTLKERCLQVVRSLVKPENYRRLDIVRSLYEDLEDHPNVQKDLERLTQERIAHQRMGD
Chain of VHL Elongin B/C complex (Q15370 whole entry partner, looked up): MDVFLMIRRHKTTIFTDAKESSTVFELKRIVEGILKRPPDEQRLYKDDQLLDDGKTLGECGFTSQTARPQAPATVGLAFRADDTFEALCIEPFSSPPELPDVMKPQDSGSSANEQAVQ
Chain of VHL Elongin B/C complex (Q15369 whole entry partner, looked up): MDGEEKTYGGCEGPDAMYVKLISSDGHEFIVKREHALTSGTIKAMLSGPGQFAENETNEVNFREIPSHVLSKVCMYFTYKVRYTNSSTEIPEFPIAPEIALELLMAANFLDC
Chain of NanoLuc VHL fusion protein (P40337 whole entry, looked up, the tested form may be a part): as the sequence (P40337 whole entry, looked up) above
Chain of NanoLuc VHL fusion protein (Q15370 whole entry partner, looked up, the tested form may be a part): as the sequence (Q15370 whole entry partner, looked up) above
Chain of NanoLuc VHL fusion protein (Q15369 whole entry partner, looked up, the tested form may be a part): as the sequence (Q15369 whole entry partner, looked up) above
Chain of VHL co-expressed with Elongins B and C (P40337 whole entry, looked up): as the sequence (P40337 whole entry, looked up) above
Chain of VHL co-expressed with Elongins B and C (Q15370 whole entry partner, looked up): as the sequence (Q15370 whole entry partner, looked up) above
Chain of VHL co-expressed with Elongins B and C (Q15369 whole entry partner, looked up): as the sequence (Q15369 whole entry partner, looked up) above

| Compound | IC50 [1] [µM] | IC50 [2] [µM] | Kd [3] [µM] |
| --- | --- | --- | --- |
| Cc1cc(C(C(=O)N2C[C@H](O)CC2C2=NC(C)(C)C(C)(C)N2)C(C)C)on1 (stereo partly drawn) [Example 136.1, 1-((4R)-4-Hydroxy-2-(4,4,5,5-tetramethyl-4,5-dihydro-1H-imidazol-2-yl)pyrrolidin-1-yl)-3-methyl-2-(3-methylisoxazol-5-yl) butan-1-one] | 77.1 | 93.6 | ≥ 150 |
| Cc1ncsc1-c1ccc([C@]2(C)NC(C3C[C@@H](O)CN3C(=O)C3N(S(C)(=O)=O)CCC3(C)C)=NC2=O)cc1 (single isomer, unassigned) [Example 125.4] | 100 | ≥ 400 | ≥ 150 |
| Cc1cc([C@H](C(=O)N2C[C@H](O)C[C@H]2C2=NOC(C)(c3ccc(-c4scnc4C)cc3)N2)C(C)C)on1 (single isomer, unassigned) [Example 129.3] | 0.304 | 0.418 | 0.0293 |
| CC(=O)N1CCCCC1C(=O)N1C[C@H](O)CC1C1=NC(=O)[C@](C)(c2ccc(-c3scnc3C)cc2)N1 (single isomer, unassigned) [Example 124.2] | 54.6 | 32.9 | 10.1 |
| Cc1ncsc1-c1ccc([C@]2(C)NC(C3C[C@@H](O)CN3C(=O)[C@H](C(C)C)N3Cc4ccccc4C3=O)=NC2=O)cc1 (single isomer, unassigned) [Example 123.1] | 100 | ≥ 400 | 55.6 |
| Cc1cc([C@H](C(=O)N2C[C@H](O)C[C@H]2C2=NOC3(CCc4ccccc43)N2)C(C)C)on1 (single isomer, unassigned) [Example 130.3] | 16.2 | 17.6 | 4.69 |
| Cc1cc(C(C(=O)N2C[C@H](O)C[C@H]2C2=NN(c3ccccc3)C(C)(C)N2)C(C)C)on1 (single isomer, unassigned) [Example 135.2] | 5.67 | 9.32 | 6.55 |
| Cc1ncsc1-c1ccc([C@]2(C)NC(C3C[C@@H](O)CN3C(=O)C(c3cn(C)nn3)C(C)C)=NC2=O)cc1 (single isomer, unassigned) [Example 118.3] | 100 | 150 | 21.2 |
| Cc1ncsc1-c1ccc([C@]2(C)NC(C3C[C@@H](O)CN3C(=O)[C@@H](NC(=O)C3(C#N)CC3)C(C)(C)C)=NC2=O)cc1 (single isomer, unassigned) [Example 111.1] | ≥ 100 | 111 | 31.8 |
| Cc1cc([C@H](C(=O)N2C[C@H](O)C[C@H]2C2=NOC3(CCc4ccccc43)N2)C(C)C)on1 (single isomer, unassigned) [Example 130.4] | 34.5 | 17.5 | 4.24 |
| Cc1cc([C@H](C(=O)N2C[C@H](O)C[C@H]2C2=NO[C@](C)(c3ccc(Br)cc3)N2)C(C)C)on1 (mixture of isomers) [Example 113.4, (2S)-1-((2S,4R)-2-(5-(4-Bromophenyl)-5-methyl-4,5-dihydro-1,2,4-oxadiazol-3-yl)-4-hydroxypyrrolidin-1-yl)-3-methyl-2-(3-methylisoxazol-5-yl)butan-1-one and (2R)-1-((2S,4R)-2-(5-(4-Bromophenyl)-5-methyl-4,5-dihydro-1,2,4-oxadiazol-3-yl)-4-hydroxypyrrolidin-1-yl)-3-methyl-2-(3-methylisoxazol-5-yl)butan-1-one] | 2.92 | 2.28 | 3.17 |
| Cc1ncsc1-c1ccc([C@]2(C)NC(C3C[C@@H](O)CN3C(=O)C(c3cnn(C)c3)C(C)C)=NC2=O)cc1 (single isomer, unassigned) [Example 110.4] | ≥ 100 | ≥ 400 | 150 |
| Cc1ncsc1-c1ccc([C@]2(C)NC(C3C[C@@H](O)CN3C(=O)C(c3cn(C)nn3)C(C)C)=NC2=O)cc1 (single isomer, unassigned) [Example 118.4] | 100 | ≥ 400 | 102 |
| Cc1cc(C(C(=O)N2C[C@H](O)CC2C2=NC(=O)[C@](C)(c3ccc(-c4scnc4C)cc3)N2)C(C)C)sn1 (single isomer, unassigned) [Example 119.1] | 100 | ≥ 400 | 150 |
| CC(=O)N1CCCCC1C(=O)N1C[C@H](O)CC1C1=NC(=O)[C@](C)(c2ccc(-c3scnc3C)cc2)N1 (single isomer, unassigned) [Example 124.4] | 100 | ≥ 400 | ≥ 150 |
| Cc1cc([C@H](C(=O)N2C[C@H](O)C[C@H]2C2=NOC(C)(c3ccc(-c4scnc4C)cc3)N2)C(C)C)on1 (single isomer, unassigned) [Example 129.4] | 0.239 | 0.202 | 0.0438 |

| Compound | IC50 [1] [µM] | IC50 [2] [µM] | Kd [3] [µM] |
| --- | --- | --- | --- |
| Cc1cc([C@@H](C(=O)N2C[C@H](O)C[C@H]2C2=NOC(c3ccc(Br)cc3)(C(F)(F)F)N2)C(C)C)on1 (single isomer, unassigned) [Example 133.1] | 100 | ≥ 400 | ≥ 150 |
| Cc1cc([C@H](C(=O)N2C[C@H](O)C[C@H]2C2=NO[C@](c3ccccc3)(C(F)(F)F)N2)C(C)C)on1 (mixture of isomers) [Example 114.4, (2S)-1-((2S,4R)-4-Hydroxy-2-(5-phenyl-5-(trifluoromethyl)-4,5-dihydro-1,2,4-oxadiazol-3-yl)pyrrolidin-1-yl)-3-methyl-2-(3-methylisoxazol-5-yl)butan-1-one and (2R)-1-((2S,4R)-4-Hydroxy-2-(5-phenyl-5-(trifluoromethyl)-4,5-dihydro-1,2,4-oxadiazol-3-yl)pyrrolidin-1-yl)-3-methyl-2-(3-methylisoxazol-5-yl)butan-1-one] | 59.9 | 58.3 | 5.86 |
| Cc1cc([C@H](C(=O)N2C[C@H](O)C[C@H]2C2=NOC(C)(C)N2)C(C)C)on1 [Example 126.1, (R)-1-((2S,4R)-2-(5,5-dimethyl-4,5-dihydro-1,2,4-oxadiazol-3-yl)-4-hydroxypyrrolidin-1-yl)-3-methyl-2-(3-methylisoxazol-5-yl)butan-1-one] | 45.4 | 31.4 | 12.8 |
| Cc1ncsc1-c1ccc([C@]2(C)NC(C3C[C@@H](O)CN3C(=O)C3N(S(C)(=O)=O)CCC3(C)C)=NC2=O)cc1 (single isomer, unassigned) [Example 125.2] | 100 | ≥ 400 | ≥ 150 |
| Cc1cc([C@H](C(=O)N2C[C@H](O)C[C@H]2C2=NOC(C)(c3ccccc3)N2)C(C)C)on1 (single isomer, unassigned) [Example 128.3] | 10.7 | 33.6 | 5.7 |
| CC/C(=C(\c1ccc(O)cc1)c1ccc(OCCN(C)C(=O)CCCOCCOc2cc(C(C(=O)N3C[C@H](O)CC3C3=NC(=O)[C@](C)(c4ccc(-c5scnc5C)cc4)N3)C(C)C)on2)cc1)c1ccccc1 (single isomer, unassigned) [Example 1003.2] | ≥ 100 | ≥ 400 | 67.1 |
| CCN1N=C([C@@H]2C[C@@H](O)CN2C(=O)C(c2cc(C)no2)C(C)C)NC1(C)C (single isomer, unassigned) [Example 115.1] | 100 | ≥ 400 | 150 |
| Cc1cc([C@@H](C(=O)N2C[C@H](O)C[C@H]2C2=NOC(C)(c3ccc(-c4scnc4C)cc3)N2)C(C)C)on1 (single isomer, unassigned) [Example 129.1] | 100 | 79 | 48.1 |
| Cc1ncsc1-c1ccc([C@]2(C)NC(C3C[C@@H](O)CN3C(=O)C(c3cn(C)nn3)C(C)C)=NC2=O)cc1 (single isomer, unassigned) [Example 118.2] | 0.939 | 0.418 | 0.128 |
| CC/C(=C(\c1ccc(O)cc1)c1ccc(OCCN(C)C(=O)CCCOCCOc2cc(C(C(=O)N3C[C@H](O)CC3C3=NC(=O)[C@](C)(c4ccc(-c5scnc5C)cc4)N3)C(C)C)on2)cc1)c1ccccc1 (single isomer, unassigned) [Example 1003.4] | ≥ 100 | ≥ 100 | 67.1 |
| CC/C(=C(\c1ccc(O)cc1)c1ccc(OCCN(C)C(=O)CCCOCCOc2cc(C(C(=O)N3C[C@H](O)CC3C3=NC(=O)[C@](C)(c4ccc(-c5scnc5C)cc4)N3)C(C)C)on2)cc1)c1ccccc1 (single isomer, unassigned) [Example 1003.3] | 51.6 | 30.4 | 67.1 |
| Cc1ncsc1-c1ccc([C@]2(C)NC(C3C[C@@H](O)CN3C(=O)C(c3cc(O)no3)C(C)C)=NC2=O)cc1 (single isomer, unassigned) [Example 116.4] | 100 | 35.4 | 5.3 |
| Cc1cc(C(C(=O)N2C[C@H](O)CC2C2=NC(=O)[C@](C)(c3ccc(-c4scnc4C)cc3)N2)C(C)C)sn1 (single isomer, unassigned) [Example 119.2] | 100 | ≥ 400 | 150 |
| CCN1N=C([C@@H]2C[C@@H](O)CN2C(=O)C(c2cc(C)no2)C(C)C)NC1(C)C (single isomer, unassigned) [Example 115.2] | 25.7 | 40.7 | 4.03 |
| Cc1cc([C@H](C(=O)N2C[C@H](O)C[C@H]2C2=NOC(c3ccc(Br)cc3)(C(F)(F)F)N2)C(C)C)on1 (single isomer, unassigned) [Example 133.4] | 52.3 | 54.9 | 17.4 |
